System: modified version of the GPR119 receptor (94% identity to human receptor)
Assay: cAMP production assay (LANCE cAMP kit, TR-FRET) in HEK-293 cells
Format: cell-based
Conditions: for cAMP production in HEK-293 cells: HEK-293 cells stably expressing modified GPR119, test compounds 0.2 nM to 10 μM, one-hour incubation at ambient temperature; for Fold over baseline: increase in cAMP relative to basal levels, agonist activity if 1.5-fold or greater
How it was run: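 Doxycycline-induced (1 μg/mL, overnight) HEK-293 cells expressing modified GPR119 were thawed, 2000 cells/well, and exposed to compounds (0.2 nM-10 μM final, 0.5% DMSO) for 1 h at ambient temperature in HBSS/HEPES/BSA. cAMP was measured by LANCE TR-FRET against a standard curve. Agonism was defined as ≥1.5-fold over basal.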

## CS(=O)(=O)c1cc(F)c(N[C@H]2CCN(C3CCN(c4ccc(C(F)(F)F)cn4)CC3)C2=O)cc1F [Example 104, (S)-3-(2,5-difluoro-4-(methylsulfonyl)phenyl-amino)-1-(1-(5-(trifluoro-methyl)pyridin-2-yl)piperidin-4-yl)pyrrolidin-2-one]
  cAMP production in HEK-293 cells: 13.5 nmol
  Fold over baseline: 2.8

## Cc1nnc(-c2ccc(O[C@H]3CCN(C4CCN(c5cnc(Cl)cn5)CC4)C3=O)c(F)c2)o1 [Example 71, (S)-1-(1-(5-chloropyrazin-2-yl)piperidin-4-yl)-3-(2-fluoro-4-(5-methyl-1,3,4-oxadiazol-2-yl)phenoxy)pyrrolidin-2-one]
  cAMP production in HEK-293 cells: 17.6 nmol
  Fold over baseline: 5.6

## CCc1ccc(N2CCC(N3CC[C@@H](Nc4ccc(S(C)(=O)=O)cc4F)C3=O)CC2)nc1 [Example 27B, (R)-1-(1-(5-ethylpyridin-2-yl)piperidin-4-yl)-3-(2-fluoro-4-(methylsulfonyl)phenylamino)pyrrolidin-2-one]
  cAMP production in HEK-293 cells: 7.5 nmol
  Fold over baseline: 2.2

## CS(=O)(=O)c1ccc(N[C@H]2CCN(C3CCN(c4ncc(Cl)nc4Cl)CC3)C2=O)c(F)c1 [Example 147, (S)-1-(1-(3,5-dichloropyrazin-2-yl)piperidin-4-yl)-3-(2-fluoro-4-(methylsulfonyl)phenylamino)pyrrolidin-2-one]
  cAMP production in HEK-293 cells: 46.4 nmol
  Fold over baseline: 3.6

## CCc1cnc(N2CCC(N3CCC(Nc4ccc(S(C)(=O)=O)cc4F)C3=O)CC2)c(C)c1 (stereo not shown) [Example 28, 1-(1-(5-ethyl-3-methylpyridin-2-yl)piperidin-4-yl)-3-(2-fluoro-4-(methylsulfonyl)phenylamino)pyrrolidin-2-one]
  cAMP production in HEK-293 cells: 39.4 nmol
  Fold over baseline: 4.0

## CS(=O)(=O)c1ccc(O[C@H]2CCN(C3CCN(c4cnc(Cl)cn4)CC3)C2=O)c(F)c1 [Example 91, (S)-1-(1-(5-chloropyrazin-2-yl)piperidin-4-yl)-3-(2-fluoro-4-(methylsulfonyl)phenoxy)pyrrolidin-2-one]
  cAMP production in HEK-293 cells: 38.0 nmol
  Fold over baseline: 3.9

## CS(=O)(=O)c1ccc(N[C@H]2CCN(C3CCN(c4cnc(Br)cn4)CC3)C2=O)c(F)c1 [Example 12, (S)-1-(1-(5-bromopyrazin-2-yl)piperidin-4-yl)-3-(2-fluoro-4-(methylsulfonyl)phenyl-amino)pyrrolidin-2-one]
  cAMP production in HEK-293 cells: 23.4 nmol
  Fold over baseline: 3.8

## CS(=O)(=O)c1cc(F)c(O[C@H]2CCN(C3CCN(c4ncc(-c5ccccc5)cn4)CC3)C2=O)cc1F [Example 92, S-3-(2,5-difluoro-4-(methylsulfonyl)phenoxy)-1-(1-(5-phenylpyrimidin-2-yl)piperidin-4-yl)pyrrolidin-2-one]
  cAMP production in HEK-293 cells: 16.6 nmol
  Fold over baseline: 3.0

## CS(=O)(=O)c1cc(F)c(N[C@H]2CCN(C3CCN(c4cnc(Cl)cn4)CC3)C2=O)cc1F [Example 3, (S)-1-(1-(5-chloropyrazin-2-yl)piperidin-4-yl)-3-(2,5-difluoro-4-(methylsulfonyl)phenylamino)pyrrolidin-2-one]
  cAMP production in HEK-293 cells: 23.2 nmol
  Fold over baseline: 5.0

## CS(=O)(=O)c1ccc(N[C@@H]2CCN(C3CCN(c4cnc(Cl)cn4)CC3)C2=O)c(F)c1 [Example 118, (R)-1-(1-(5-chloropyrazin-2-yl)piperidin-4-yl)-3-(2-fluoro-4-(methylsulfonyl)phenyl-amino)pyrrolidin-2-one]
  cAMP production in HEK-293 cells: 40.6 nmol
  Fold over baseline: 3.4

## CS(=O)(=O)c1ccc(O[C@H]2CCN(C3CCN(c4ncc(C(F)(F)F)cc4F)CC3)C2=O)c(F)c1 [Example 138, (S)-3-(2-fluoro-4-(methyl-sulfonyl)phenoxy)-1-(1-(3-fluoro-5-(trifluoro-methyl)pyridin-2-yl)piperidin-4-yl) pyrrolidin-2-one]
  cAMP production in HEK-293 cells: 38.6 nmol
  Fold over baseline: 6.7
